Data reported in publication doi:10.1101/2024.06.25.600598v1 (biorxiv, 2024).
Where a name gives a salt, the structure may show the parent alone.

Legend:
[1] = target: T1, fibroblast activation protein (FAP; rhFAP, SLIN-tagged hFAP) (Homo sapiens, UniProt Q12884); test: biochemical; assay type: binding
T1 sequence (Q12884 35-760): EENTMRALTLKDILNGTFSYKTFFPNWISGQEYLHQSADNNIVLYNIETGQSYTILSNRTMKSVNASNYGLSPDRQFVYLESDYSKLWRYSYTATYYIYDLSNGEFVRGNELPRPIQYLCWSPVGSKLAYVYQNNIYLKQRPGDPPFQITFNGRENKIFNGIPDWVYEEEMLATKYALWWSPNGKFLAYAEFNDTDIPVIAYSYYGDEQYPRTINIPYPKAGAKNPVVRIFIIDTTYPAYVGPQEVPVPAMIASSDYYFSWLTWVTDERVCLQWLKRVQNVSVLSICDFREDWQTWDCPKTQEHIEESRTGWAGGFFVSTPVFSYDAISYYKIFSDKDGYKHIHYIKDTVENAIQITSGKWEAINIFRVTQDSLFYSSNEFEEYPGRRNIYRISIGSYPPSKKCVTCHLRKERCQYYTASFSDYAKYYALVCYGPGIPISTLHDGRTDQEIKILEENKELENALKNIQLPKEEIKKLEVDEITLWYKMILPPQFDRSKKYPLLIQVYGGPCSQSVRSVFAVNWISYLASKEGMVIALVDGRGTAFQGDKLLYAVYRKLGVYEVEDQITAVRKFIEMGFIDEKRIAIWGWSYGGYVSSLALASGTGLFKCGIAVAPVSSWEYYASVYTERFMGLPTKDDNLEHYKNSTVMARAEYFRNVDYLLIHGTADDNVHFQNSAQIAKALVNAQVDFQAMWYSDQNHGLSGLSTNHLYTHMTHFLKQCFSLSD

[2] = target: T1, fibroblast activation protein (FAP; rhFAP, SLIN-tagged hFAP); details: 2 µM; inhibitor
[3] = target: T1, fibroblast activation protein (FAP; rhFAP, SLIN-tagged hFAP); test: DIANA competition with DNA-linked probe, qPCR; assay type: binding
[4] = target: T1, fibroblast activation protein (FAP; rhFAP, SLIN-tagged hFAP); test: biochemical
[5] = target: T1, fibroblast activation protein (FAP; rhFAP, SLIN-tagged hFAP); test: fluorogenic AMC substrate activity assay; assay type: biochemical

Ki [1] | Relative inhibition (%), activity assay [2] | Ki [4] | also measured | SMILES
2.2 µM | 45% | – | – | CC(C)(C)C(=O)OCOC(=O)[C@@H]1N2C(=O)[C@@H](N=CN3CCCCCC3)[C@H]2SC1(C)C [pivmecillinam]
0.8 µM | 46% | – | – | C=CC1=C(C)c2cc3[nH]c(cc4nc(cc5[nH]c(cc1n2)c(C)c5CCC(=O)O)C(CCC(=O)O)=C4C)c(C)c3C=C [protoporphyrin IX]
– | – | – | Ki [3]: 0.0007 ± 0.0001 µM | Cc1ccc(C)c(CNC(=O)C(=O)[C@@H]2CCCN2C(=O)CNC(=O)c2ccnc3ccccc23)c1 [6f]
0.64 µM | – | – | – | C[C@@H](O)[C@H]1C(=O)N2C(C(=O)OCOC(=O)C(C)(C)C)=C(SC3CN(C4=NCCS4)C3)[C@H](C)[C@H]12 [Tebipenem pivoxil]
0.6 µM | – | – | – | C=CC1=C(C)C2=Cc3c(C=C)c(C)c4[n]3[Fe]([Cl])[n]3c(c(C)c(CCC(=O)O)c3=CC3=NC(=C4)C(C)=C3CCC(=O)O)=CC1=N2 [hemin]
– | 19% | 0.6 µM | – | COc1cccc2c1C(=O)c1c(O)c3c(c(O)c1C2=O)C[C@@](O)(C(=O)CO)C[C@@H]3O[C@H]1C[C@H](N)[C@H](O[C@@H]2CCCCO2)[C@H](C)O1 [Pirarubicin (Hydrochloride)]
– | 16% | 8.8 µM | – | CCC1=C(C)CN(C(=O)NCCc2ccc(S(=O)(=O)NC(=O)N[C@H]3CC[C@H](C)CC3)cc2)C1=O [Glimepiride]
– | 23% | 6.4 µM | – | COc1cccc2c1C(=O)c1c(O)c3c(c(O)c1C2=O)C[C@@](O)(C(C)=O)C[C@@H]3O[C@H]1C[C@H](N)[C@H](O)[C@H](C)O1 [Daunorubicin (hydrochloride)]
– | – | – | IC50 [5]: > 20 µM | O=C1OC2(c3ccc(O)cc3Oc3cc(O)ccc32)c2ccccc21 [Fluorescein (sodium)]
– | 22% | 8.7 µM | – | CCN(c1cc(-c2ccc(CN3CCOCC3)cc2)cc(C(=O)NCc2c(C)cc(C)[nH]c2=O)c1C)C1CCOCC1 [Tazemetostat (hydrobromide)]
– | 27% | 3.3 µM | – | CNC(=O)c1ccc(-c2cnc3ncc(Cc4ccc5ncccc5c4)n3n2)cc1F [Capmatinib]
– | 20% | 4.1 µM | – | CC1(C)C(/C=C/C=C/C=C/C=C2\N(CCCCS(=O)(=O)O)c3ccc4ccccc4c3C2(C)C)=[N+](CCCCS(=O)(=O)[O-])c2ccc3ccccc3c21 [Indocyanine green]
– | 16% | 2 µM | – | COc1ccc(-c2cc(=O)c3c(O)c(OC)c(O)cc3o2)cc1OC [Eupatilin]
0.1 µM | 9% | – | – | O=C1OC2(c3cc(I)c(O)c(I)c3Oc3c2cc(I)c(O)c3I)c2c(Cl)c(Cl)c(Cl)c(Cl)c21 [rose bengal]
